Assay results: PubChem BioAssay (NCI)
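48-hour exposure; five concentrations; linearly interpolated endpoints. GI50 is the concentration that inhibits growth by half. TGI denotes the concentration required for complete inhibition of growth.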

Tests used:
Assay in all cases: growth of human tumour cells (NCI), 48 h
A549 NSCLC = system: A549 NSCLC
CCRF-CEM leukemia = system: CCRF-CEM leukemia
HCC-2998 colon = system: HCC-2998 colon
HCT-15 colon = system: HCT-15 colon
HOP-62 NSCLC = system: HOP-62 NSCLC
MOLT-4 leukemia = system: MOLT-4 leukemia
NCI-H460 lung = system: NCI-H460 lung
SW-620 colon = system: SW-620 colon
UO-31 renal = system: UO-31 renal
CAKI-1 renal = system: CAKI-1 renal

SMILES	TGI (A549 NSCLC) [µM]	TGI (CCRF-CEM leukemia) [µM]	TGI (HCC-2998 colon) [µM]	TGI (HCT-15 colon) [µM]	TGI (HOP-62 NSCLC) [µM]	TGI (MOLT-4 leukemia) [µM]	TGI (NCI-H460 lung) [µM]	TGI (SW-620 colon) [µM]	TGI (UO-31 renal) [µM]	TGI (CAKI-1 renal) [µM]	GI50 (A549 NSCLC) [µM]	GI50 (CCRF-CEM leukemia) [µM]	GI50 (MOLT-4 leukemia) [µM]	GI50 (NCI-H460 lung) [µM]	GI50 (SW-620 colon) [µM]
O=C(/C=C/c1ccc(O)c(O)c1)OCCc1ccc2ccccc2c1	24.9	23.8	30.9	10.2	26.4	11.3	23.7	20.7	13.1	–	–	–	–	–	–
CN1CSC(=S)N(c2cccc(C(F)(F)F)c2)C1	73	> 100	32.9	38	70	57	42.6	> 100	45.3	74	–	–	–	–	–
COc1cc2nc(-c3ccc(Cl)cc3)cc(OCCCN3CCOCC3)c2cc1OC	> 100	> 100	–	–	–	> 100	> 100	> 100	–	–	2.02	3.35	2.85	0.958	3.57
CCCCI(O)OS(=O)(=O)c1ccc(C)cc1	> 100	76.3	> 100	> 100	> 100	> 100	–	> 100	55.4	> 100	–	–	–	–	–
Cc1ccc2cccc(-c3cccc4ccccc34)c2n1	> 100	50	29.1	91.1	56.9	40.6	89	> 100	51.4	> 100	–	–	–	–	–
O=[N+]([O-])c1ccc(C[P+]2(c3ccccc3)CCCCC2)cc1	> 100	> 100	> 100	> 100	> 100	> 100	> 100	> 100	> 100	–	–	–	–	–	–
CN(CCN1CCCC1)C1CCc2cc(Cl)c(Cl)cc2C1 (stereo unspecified)	32.4	> 100	18.2	26.5	32.7	> 100	31.5	89	27.7	33.6	–	–	–	–	–
O=c1ccc2ccc(S)cc2o1	> 100	–	> 100	> 100	> 100	> 100	> 100	> 100	> 100	> 100	–	–	–	–	–
COc1ccc(C2Oc3ccc(Cl)cc3C=C2[N+](=O)[O-])cc1 (stereo unspecified)	> 100	> 100	–	> 100	> 100	> 100	> 100	–	> 100	> 100	–	–	–	–	–
Cc1c(C)n(-c2ccccc2)c2nc(S(C)=O)nc(S(C)=O)c12 (stereo unspecified)	31.7	3.88	30.3	17.8	36.5	5.57	43.4	3.86	20.2	2.66	–	–	–	–	–
O=C(ON=C1c2ccccc2C(Br)C(Br)c2ccccc21)c1ccccc1 (stereo unspecified)	44	2.05	38.1	42.5	17.3	4.61	18.8	28.6	8.32	23.7	–	–	–	–	–
N#Cc1c(-c2ccc([N+](=O)[O-])cc2)cc(-c2ccc(Nc3ccnc4cc(Cl)ccc34)cc2)[nH]c1=O	> 100	–	> 100	> 100	> 100	> 100	> 100	> 100	> 100	> 100	–	–	–	–	–
COc1cccc(C2c3cc4c(cc3OC(O)C2C)OCO4)c1OC (stereo unspecified)	26	9.6	46	> 100	80.1	18.5	25.1	54	–	13.9	–	–	–	–	–
CCOC(=O)CSc1nc(N)c2c(-c3ccccc3)c3c(nc2n1)CCCC3	> 100	> 100	> 100	> 100	> 100	> 100	> 100	> 100	> 100	> 100	–	–	–	–	–
C[C@@H]1CC[C@@]2(C)C(C(=O)O)=CCCC2[C@@]1(C)CC(=O)c1ccoc1 (stereo partly specified)	> 25	> 25	–	> 25	–	> 25	> 25	> 25	> 25	> 25	–	–	–	–	–
Cc1nc2ccc(Cl)cc2c(-n2ccnc2)c1CCn1ccnc1	> 100	69.3	> 100	> 100	> 100	–	> 100	> 100	74.6	> 100	–	–	–	–	–
O=C(O)c1nc2ccc(C(F)(F)F)cc2[nH]c1=O	> 100	> 100	> 100	> 100	> 100	> 100	> 100	> 100	> 100	> 100	–	–	–	–	–
COCOc1ccc(C(=O)Oc2cccc3c2OC(C)(C)O3)c(OCOC)c1	–	> 100	> 100	> 100	> 100	> 100	> 100	> 100	> 100	> 100	–	–	–	–	–
O=C1C=CC2(O[C@H](c3ccccc3)[C@@H](c3ccccc3)O2)[C@H](Sc2ccccc2O)C1	16.4	–	1.63	0.507	3.98	–	8.95	> 100	1.22	0.886	–	–	–	–	–
c1c[nH]c(-c2cccc3nsnc23)c1	> 100	> 100	> 100	> 100	> 100	> 100	> 100	> 100	> 100	> 100	–	–	–	–	–
COc1ccc2c(c1)c1c(n2CCN2CCCCC2)-c2cccc(OC)c2CC1	> 100	27.3	36.4	70.1	32.4	48	55.9	42.5	24.7	37.7	–	–	–	–	–
C[n+]1cc2cc(O)c(O)cc2c2ccc3cc(O)c(O)cc3c21	> 100	6.17	> 57.6	> 34.2	10.8	11.2	> 60.2	> 100	5.61	> 37.3	–	–	–	–	–
